Data reported in patent US12319663B2, “Alkene-containing amide compound and application thereof” (SHENYANG SINOCHEM AGROCHEMICALS R&D CO., LTD., priority 2019, dated 2025).

Key:
Format in all cases: in vivo
[1] = system: piemarker; experiment: Herbicidal activity, post-emergence stem and leaf spray, greenhouse: piemarker control
Protocol: (§1) Seeds of broadleaf weeds (zinnia and piemarker) or grassy weeds (green bristlegrass and barnyard grass) are respectively sown in a paper cup having a diameter of 7 cm and containing nutrient soil; after sowing, the seeds are covered with 1 cm of soil; the soil is pressed and watered, and then the seeds are cultivated in a greenhouse according to a conventional method; and stems and leaves are sprayed after 2-3 leaf stage of the weeds.
(§2) After the original medicinal acetone was dissolved, the test requires to use 1% of Tween 80 to stand in running water to prepare the solution to be tested with a required concentration. According to the design dose of the test, spray treatment was carried out on a track-type crop sprayer (designed and produced by British Engineer Research Ltd.) (spray pressure is 1.95 kg/cm^2, spray volume is 50 L/hm^2 and track speed is 1.48 km/h). The test was repeated for three times. The test material was treated and then placed in an operation hall. The medicinal liquid was naturally dried in the shade, and then was placed in a greenhouse and managed according to the conventional method, The response of the weeds to the drug was observed and recorded, After treatment, the control effects of the test drug on the weeds were visually inspected regularly, expressed by 0-100%. “0” represents no control effect and “100%” represents complete killing.
According to the above test method, part of the compounds of the formula I and KC are selected for activity test of controlling the piemarker. […]

[2] = system: zinnia; experiment: Herbicidal activity, post-emergence stem and leaf spray, greenhouse: zinnia control; conditions: visual, 0 = no control effect, 100% = complete killing
Protocol: as §1, §2
According to the above test method, part of the compounds of the formula I and KC are selected for activity test of controlling the zinnia.

[3] = system: barnyard grass; experiment: Herbicidal activity, post-emergence stem and leaf spray, greenhouse: barnyard grass control
Protocol: as §1, §2
According to the above test method, part of the compounds of the formula I and KC are selected for the activity test of controlling the barnyard grass.

[4] = system: green bristlegrass; experiment: Herbicidal activity, post-emergence stem and leaf spray, greenhouse: green bristlegrass control
Protocol: as §1, §2
According to the above test method, part of the compounds of the formula I and KC are selected for the activity test of controlling the green bristlegrass.

[5] = dose 37.5 g a.i./hm2, post-emergence stem and leaf spray
[6] = dose 150 g a.i./hm2, post-emergence stem and leaf spray
[7] = dose 600 g a.i./hm2, post-emergence stem and leaf spray

Row | Compound | Piemarker control activity (after emergence, control effect %) [1, 5] | Piemarker control activity (after emergence, control effect %) [1, 6] | Piemarker control activity (after emergence, control effect %) [1, 7] | Zinnia control activity (after emergence, control effect %) ([2]; dose 37.5 g a.i./hm^2) | Zinnia control activity (after emergence, control effect %) ([2]; dose 150 g a.i./hm^2) | Zinnia control activity (after emergence, control effect %) ([2]; dose 600 g a.i./hm^2) | Barnyard grass control activity (after emergence, control effect %) [3, 5] | Barnyard grass control activity (after emergence, control effect %) [3, 6] | Barnyard grass control activity (after emergence, control effect %) [3, 7] | Green bristlegrass control activity (after emergence, control effect %) [4, 5] | Green bristlegrass control activity (after emergence, control effect %) [4, 6] | Green bristlegrass control activity (after emergence, control effect %) [4, 7]
1 | COCc1c(S(C)(=O)=O)ccc(C(=O)N(C(=O)/C=C/c2ccccc2)c2nnnn2C)c1Cl [Compound 1-24] | 100% | 100% | 100% | 100% | 100% | 100% | 95% | 95% | 100% |  |  | 
2 | Cc1c(C(=O)N(C(=O)C2=CCCC2)c2nnnn2C)ccc(S(C)(=O)=O)c1OCC(F)(F)F [Compound 2-15] |  |  |  | 100% | 100% | 100% | 85% | 100% | 100% | 90% | 100% | 100%
3 | Cc1c(S(C)(=O)=O)ccc(C(=O)N(C(=O)C2=CCCCC2)c2nnnn2C)c1Cl [Compound 2-97] | 95% | 100% | 100% | 100% | 100% | 100% | 90% | 95% | 100% | 80% | 95% | 100%
4 | COCc1c(S(C)(=O)=O)ccc(C(=O)N(C(=O)C2=CCCCC2)c2nnnn2C)c1Cl [Compound 2-103] | 95% | 100% | 100% | 90% | 95% | 100% | 80% | 90% | 100% | 80% | 90% | 95%
5 | Cn1nnnc1N(C(=O)C1=CCCCC1)C(=O)c1ccc(C(F)(F)F)cc1S(C)(=O)=O [Compound 2-265] | 90% | 95% | 95% | 95% | 100% | 100% | 95% | 95% | 95% | 80% | 90% | 95%
6 | Cn1nnnc1N(C(=O)C1=CCCC1)C(=O)c1ccc(C(F)(F)F)cc1S(C)(=O)=O [Compound 2-266] | 90% | 95% | 100% | 95% | 98% | 100% | 85% | 90% | 95% | 90% | 95% | 100%
7 | COCCOCc1c(S(C)(=O)=O)ccc(C(=O)N(C(=O)C2=CCCCC2)c2nnnn2C)c1Cl [Compound 2-270] | 90% | 98% | 100% |  |  |  | 90% | 95% | 100% | 90% | 95% | 98%
8 | Cn1nnnc1N(C(=O)c1ccccc1)C(=O)c1ccc(C(F)(F)F)cc1S(C)(=O)=O [KC, reference compound] | 60% | 85% |  | 65% | 90% |  | 50% | 65% |  | 45% | 70% | 
